Measurements: patent US9624182B2, “Compounds as lysophosphatidic acid receptor antagonists” (Amira Pharmaceuticals, Inc., priority 2009, dated 2017)

Assays:
human LPA1 = target: T1, human LPA1 (Homo sapiens, UniProt Q92633); test: LPA1 calcium flux assay; assay type: cell-based; details: CHO cells expressing human LPA1, stimulated with 10 nM LPA; read-out: HLPA1 Ca Flux IC50
T1 construct: the full-length cDNA for human LPA1 was obtained by PCR of the reverse transcription reaction; expressed in transfected cells
Summary of the method: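 CHO cells stably expressing cloned human LPA1, serum-starved overnight, loaded with Calcium 4 dye 1 h at 37 °C in HBSS/20 mM Hepes with 0.3% fatty-acid-free HSA. Compounds preincubated 30 min at room temperature, then cells stimulated with 10 nM LPA; intracellular Ca2+ read by fluorescence. IC50 from titration curves.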

[1] = test system: A2058 human melanoma cells; test: LPA1 chemotaxis assay; assay type: cell-based; details: LPA 100 nM, read-out: IC50, inhibition of LPA-driven chemotaxis
Procedure: Chemotaxis of the A2058 human melanoma cells was measured using the Neuroprobe ChemoTx® System plates (8 μm pore size, 5.7 mm diameter sites). The filter sites were coated with 0.001% fibronectin (Sigma) in 20 mM Hepes, pH 7.4 and allowed to dry. A2058 cells were serum-starved for 24 hours, then harvested with Cell Stripper and resuspended in DMEM containing 0.1% fatty-acid-free bovine serum albumin (BSA) to a concentration of 1×10^6/ml. Cells were mixed with an equal volume of test compound (2×) in DMEM containing 0.1% fatty-acid-free BSA and incubated at 37° C. for 15 minutes. LPA (100 nM in DMEM containing 0.1% fatty-acid-free BSA) or vehicle was added to each well of the lower chamber and 50 μl of the cell suspension/test compound mix was applied to the upper portion of the ChemoTx plate. Plates were incubated at 37° C. for three hours and then the cells removed from the upper portion by rinsing with PBS and scraping. The filter was dried then stained with HEMA 3 Staining System (Fisher Scientific). The absorbance of the filter was read at 590 nm and IC50s were determined using Symyx Assay Explorer.

nerve-injured mice = details: pretreatment; cited from earlier work
UUO mice = UUO mice treated with antagonist; cited from earlier work
[2] = test system: highly peritoneal metastatic pancreatic cancer cell line; details: cited from earlier work
[3] = test system: pancreatic cancer cell lines; details: LPA and peritoneal fluid (ascites) from pancreatic cancer patients; cited from earlier work
[4] = test system: human foetal lung fibroblasts; details: BAL obtained from IPF patients; cited from earlier work
[5] = test system: mouse epithelial renal cell line, MCT; details: MCT cells, co-treatment with LPA; cited from earlier work

T1 sequence (Q92633 whole entry): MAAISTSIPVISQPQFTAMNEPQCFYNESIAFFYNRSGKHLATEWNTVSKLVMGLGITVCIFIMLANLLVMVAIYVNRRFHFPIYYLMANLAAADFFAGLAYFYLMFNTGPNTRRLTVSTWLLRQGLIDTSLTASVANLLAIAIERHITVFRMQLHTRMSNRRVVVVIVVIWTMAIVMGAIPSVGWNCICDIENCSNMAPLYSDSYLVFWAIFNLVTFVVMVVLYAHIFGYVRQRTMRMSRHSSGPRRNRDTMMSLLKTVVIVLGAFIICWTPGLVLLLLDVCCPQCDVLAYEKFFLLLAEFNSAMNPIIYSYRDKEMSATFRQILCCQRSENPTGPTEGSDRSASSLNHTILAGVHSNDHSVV

Cc1noc(-c2ccc(-c3ccc(C4(C(=O)O)CC4)cc3)cc2)c1C(O)CCCc1ccccc1 (single isomer, unassigned) [Compound 1-155, 1-{4′-[4-(1-Hydroxy-4-phenyl-butyl)-3-methyl-isoxazol-5-yl]-biphenyl-4-yl}-cyclopropanecarboxylic acid]
IC50 (human LPA1): < 300 nM
IC50 [1]: < 100 nM

Cc1noc(-c2ccc(-c3ccc(C4(C(=O)O)CC4)cc3)cc2)c1C(O)C(F)(F)CCc1ccccc1 (single isomer, unassigned) [Compound 1-255, 1-{4′-[4-(2,2-Difluoro-1-hydroxy-4-phenyl-butyl)-3-methyl-isoxazol-5-yl]-biphenyl-4-yl}-cyclopropanecarboxylic acid]
IC50 (human LPA1): < 300 nM
IC50 [1]: < 100 nM

Cc1noc(-c2ccc(-c3ccc(C4(C(=O)O)CC4)cc3)cc2)c1C(O)CCCc1ccccc1 (stereo not drawn) [Compound 1-116, 1-{4′-[4-(1-Hydroxy-4-phenyl-butyl)-3-methyl-isoxazol-5-yl]-biphenyl-4-yl}-cyclopropanecarboxylic acid]
IC50 [1]: < 100 nM

Cc1noc(-c2ccc(-c3ccc(C4(C(=O)O)CC4)cc3)cc2)c1C(O)C(F)(F)CCc1ccccc1 (stereo not drawn) [Compound 1-178, 1-{4′-[4-(2,2-Difluoro-1-hydroxy-4-phenyl-butyl)-3-methyl-isoxazol-5-yl]-biphenyl-4-yl}-cyclopropanecarboxylic acid]
IC50 [1]: < 100 nM

COc1cccc(SCC(O)c2c(C)noc2-c2ccc(-c3ccc(C4(C(=O)NS(C)(=O)=O)CC4)cc3)cc2)c1 (stereo not drawn) [Compound 2-14, N-[1-(4′-{4-[1-Hydroxy-2-(3-methoxy-phenylsulfanyl)-ethyl]-3-methyl-isoxazol-5-yl}-biphenyl-4-yl)-cyclopropanecarbonyl]-methanesulfonamide]
IC50 (human LPA1): 300 to 1000 nM

Cc1noc(-c2ccc(-c3ccc(C4(CC(=O)NS(C)(=O)=O)CC4)cc3)cc2)c1C(CCCc1ccccc1)OC(=O)NS(C)(=O)=O (stereo not drawn) [Compound 2-15, N-Sulfonylmethyl carbamic acid 1-(5-{4′-[1-(2-methanesulfonylamino-2-oxo-ethyl)-cyclopropyl]-biphenyl-4-yl}-3-methyl-isoxazol-4-yl)-4-phenyl-butyl ester]
IC50 (human LPA1): 300 to 1000 nM

Cc1noc(-c2ccc(-c3ccc(C4(CC(=O)NS(C)(=O)=O)CC4)cc3)cc2)c1C(O)CCCc1ccccc1 (stereo not drawn) [Compound 2-16, N-[2-(1-{4′-[4-(1-Hydroxy-4-phenyl-butyl)-3-methyl-isoxazol-5-yl]-biphenyl-4-yl}-cyclopropyl)-acetyl]-methanesulfonamide]
IC50 (human LPA1): < 300 nM

C[C@@H](N)[C@H]1CC[C@H](C(=O)Nc2ccncc2)CC1 [Compound Y-27632]
allodynia and hyperalgesia (nerve-injured mice): completely abolished

Cc1noc(-c2ccc(CSCCC(=O)O)cc2)c1NC(=O)OC(C)c1ccccc1Cl (stereo not drawn) [Ki16425]
development of renal fibrosis in UUO mice (UUO mice): closely resembled the LPA1 (−/−) mice
LPA-induced and ascites-induced invasion activity [2]: blocked
in vitro migration in response to LPA and ascites [3]: effectively blocked
chemotaxis of human foetal lung fibroblasts induced by BAL from IPF patients [4]: blocked
LPA-induced increase in CTGF expression [5]: almost completely suppressed
